Measured values: patent publication EP1304101A1, “Composition and method for use of pyridinium derivatives in cosmetic and therapeutic applications” (Torrent Pharmaceuticals Ltd, priority 2001, dated 2003)

Legend:
Maillard reaction = assay: AGE inhibiting activity, Method I (BSA + ribose, fluorescence); assay type: biochemical; conditions: 37° C for 7 days
Description: The following method was used to determine the inhibitory effect of the test compound on Maillard reaction in-vitro.
Addition of compound was done in aseptic conditions. Sodium azide (0.02%) was also added in this solution in order to prevent microbial growth. A separate tube containing BSA, ribose and sodium azide in the same concentration and buffer as above, but without any test compound, was also incubated as positive control.
After incubation at 37° C for 7 days, 40 micro litre sample from each tube was removed and diluted with PBS to have final concentration of BSA at 1mg/ml. The fluorescence of all the samples was measured at Excitation Maximum of 355nM and the Emission Maximum of 460nM using f-MAX Fluorimeter (Molecular Device, USA). In order to study the effect of test compound on fluorescence, freshly prepared compound solution was mixed with previously incubated positive control (i.e. BSA + ribose), so as to achieve same concentration of all the components as that of test samples.
The percent inhibition of test compound was measured as follows: % Inhibition =(F4 - F3)/(F4)X 100 [formula] Where F3 = Fluorescence of BSA + ribose + compound,F4 is fluorescence of incubated (BSA + ribose) + freshly added test compound.

AGE-BSA = target: T1, AGE-BSA (Bos taurus, UniProt P02769); assay: In-vitro AGE breaking activity by ELISA (16 weeks AGE-BSA incubated with test compound); assay type: biochemical, bovine; conditions: for % Breakage: 37°C, 24 hours
T1 construct: Bovine serum albumin (fraction V) (BSA); from tissue
Description: AGE breaking activity has been confirmed by the screening procedure as mentioned below: • Materials: • Bovine serum albumin (fraction V) (BSA) • Glucose, analytical grade • Phosphate buffered saline (PBS) • Equipment: • Microplate ELISA Reader - Spectramax Plus (Molecular Devices, USA) • Microplate washer, (Bio -Tec Instruments, USA) • pH meter • Methods of experiment: Elisa (Enzyme Linked Immunosorbent Assay) 160 mg/ml of protein, bovine serum albumin, BSA and 1.6M glucose sugar were dissolved in phosphate buffered saline, PBS. Sodium azide was added at 0.02% concentration as a preservative. The solution was filtered asceptically through a 0.22 µM filter and kept for aging at 37°C for 16 weeks. After 16 weeks the solution was dialyzed against PBS, aliquoted and stored at - 20°C.
To determine the AGE breaking activity, 10 µg/ml of the 16 weeks AGE-BSA was incubated with different concentrations of the test compounds at 37°C for 24 hours and AGE breaking activity of the test compounds by ELISA was determined.
Different concentrations of 16 weeks AGE-BSA were coated on a microtitre plate as standard. Each concentration is coated in triplicates. • 2. The test samples were coated on microtitre plate at a concentration of 5 ng. to 20 ng per well in triplicates. • 3. The plate was incubated at 37°C for one hour. • 4. After incubation the plate was washed with PBST (PBS with 0.05% Tween 20). • 5. Blocking with 5% skimmed milk in PBS at 37°C for one hour was done. • 6. The plate was washed with PBST. • 7. Primary antibody against AGE-BSA was added and the plate is incubated at 37°C for one hour. • 8. The plate was washed with PBST • 9. Secondary antibody anti rabbit HRPO (Horse-Radish Per Oxidase) conjugate was added and the plate is incubated at 37°C for one hour. • 10. The plate was washed with PBST. • 11. Colour development with OPD (orthophenylenediamine dihydrochloride) and hydrogen peroxide was done. • 12. OD (optical density) at (450nm reading - 620nm reading) was measured after incubation at 37°C for 15 minutes with Microplate ELISA Reader.
The breaker activity of the compounds were determined by the following formula: % Breaker activity =(OD450-620 Control - OD450-620 Test)/(OD450-620 Control)x 100 [formula] OD450-620Control= Absorbance of 20ng AGE-BSA after incubation at 37°C for 24 hours without test compound OD450-620Test= Absorbance of 20ng AGE-BSA after incubation at 37°C for 24 hours with required concentration of test compound

[1] = Free radical scavenging activity on ABTS radical cation (absorbance at 730nm); assay type: biochemical
Description: This method measures the relative ability of free radical scavenging substances to scavenge the ABTS ^.+ i.e. 2,2-Azino-bis-(3-ethyl benzo thiazoline-6-sulfonate) radical cation as compared to a standard amount of standard or free radical scavengers antioxidants. Incubation of ABTS with Peroxidase (metmyoglobin) and hydrogen peroxide results in the production of radical cation ABTS^.+ . This species is blue- green in colour and can be detected at 730nm. Antioxidants or free radical scavengers in the added sample that causes suppression of the color to a degree that is proportional to their concentration.
• A. Phosphate Citrate Buffer (pH 5.0): 48.5ml of 0.1M citric acid with sufficient 0.2M disodium hydrogen phosphate to produce 100 ml. • B. Phosphate Buffer Saline (PBS): Dissolve 40.0g of NaCl, 1.0g of KCI, 1.0g of KH2PO4 and 3.05g of Na2HPO4 in 1 litre milli-Q water. Dilute 200ml of above solution to 1 litre with milli-Q water (pH 7.4-7.6). • C. 3µM stock solution of Peroxidase was prepared in phosphate buffer saline pH 7.4(PBS). • D. 1.08 mM stock solution of Hydrogen peroxide was prepared in phosphate buffer saline pH 7.4 (PBS).
1 tablet (10mg) was dissolved in phosphate citrate buffer (pH 5.0).
5.0ml of ABTS stock solution was diluted with PBS to 20 ml.
320 µg of the enzyme was dissolved in 2.5 ml of PBS.
12µl of Hydrogen Peroxide (30%w/v) was diluted to 100ml with PBS.
0.1mM of stock solution of the drug was prepared which was serially diluted in PBS to get solutions of different concentrations.
To 18ml of ABTS stock solution, 100µl of Horseradish Peroxidase stock solution was added.
As soon as 1.5 ml of hydrogen peroxide solution was added to the above solution, blue-green colour of the ABTS radicals appeared. This solution was incubated at 30°C for 30 min.
980µl of ABTS radical stock solution was added to an eppendorf tube. To it was added 100µl of various PBS solution.
980µl of ABTS radical stock solutions were added to different eppendorf tubes. To it were added 100µl of various concentrations of drug solution.
The absorbance of control and test samples was recorded immediately at 730nm taking PBS as blank.
Calculation: The percent antioxidant activity was calculated according to the formula: % Antioxidant activity = [O.D of test sample/O.D of control*100]-100.

Rat Tail Tendon Collagen = assay: In-vivo AGE breaking: collagen solubility in rat tail tendon of STZ-diabetic rats after 8 weeks of treatment; design: species or system male wister rats; conditions: 8 weeks treatment
Excerpt: The results are mentioned in Table 3 below:
A brief summary of observation is as follows.

[2] = comparison in words based on Table 2

T1 sequence (P02769 25-607): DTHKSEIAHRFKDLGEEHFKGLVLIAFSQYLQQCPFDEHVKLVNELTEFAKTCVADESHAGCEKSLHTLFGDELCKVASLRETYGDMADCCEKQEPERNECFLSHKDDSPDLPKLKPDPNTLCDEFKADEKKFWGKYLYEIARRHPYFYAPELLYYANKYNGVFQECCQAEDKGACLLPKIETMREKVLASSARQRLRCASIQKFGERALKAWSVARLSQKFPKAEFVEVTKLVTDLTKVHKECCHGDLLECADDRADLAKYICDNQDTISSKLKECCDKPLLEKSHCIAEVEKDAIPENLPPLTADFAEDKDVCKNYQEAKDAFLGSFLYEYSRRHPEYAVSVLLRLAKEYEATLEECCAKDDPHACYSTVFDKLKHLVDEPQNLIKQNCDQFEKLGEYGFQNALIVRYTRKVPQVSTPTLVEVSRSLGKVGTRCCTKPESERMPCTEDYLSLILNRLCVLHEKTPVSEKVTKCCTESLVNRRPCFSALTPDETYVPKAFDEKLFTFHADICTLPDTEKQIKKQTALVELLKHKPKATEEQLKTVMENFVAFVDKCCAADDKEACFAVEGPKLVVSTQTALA

Structure (SMILES) | % Breakage (AGE-BSA; 10 mM test compound) [%] | Relative Free Radical Scavenging Activity(%) on ABTS ([1]; 11.5µM) [%] | Relative Free Radical Scavenging Activity(%) on ABTS ([1]; 23.0µM) [%] | Relative Free Radical Scavenging Activity(%) on ABTS ([1]; 46.0µM) [%] | Relative Free Radical Scavenging Activity(%) on ABTS ([1]; 92.5µM) [%] | AGE breaking activity compared to PTB (AGE-BSA; [2]) | Relative Free Radical Scavenging Activity(%) on ABTS ([1]; 925µM) [%] | further results
Cc1ccc(C(=O)C[n+]2cccc(C(=O)NNS(C)(=O)=O)c2)s1.[Cl-] [Compound 63, 1-(2-(5-methylthien-2-yl)-2-oxoethyl)-3-(methanesulfonyl hydrazinocarbonyl) pyridinium chloride] | 25.17 | 10.75 | 47.20 | 88.64 | 99.18 |  |  | %Inhibition (Day 7) (Maillard reaction; 6.25mM): 58.15%
O=C(NNC(=O)c1ccc[n+](CC(=O)c2cccs2)c1)c1ccc[n+](CC(=O)c2cccs2)c1.[Cl-].[Cl-] [Compound 33, N, N'-bis [3-carbonyl-1-(2-thien-2'-yl-2-oxoethyl)pyridinium] hydrazine dichloride] |  | 58.4 |  |  | 100 | superior |  | %Inhibition (Day 7) (Maillard reaction; 2.5mM): 68.4%; % Breakage (AGE-BSA; 5 mM test compound): 20%; % Improvement in collagen solubility with respect to untreated control subject. (Rat Tail Tendon Collagen; 15.0 mg/kg): 80.45%; Relative Free Radical Scavenging Activity(%) on ABTS ([1]; 23 µM): 72.8%; Relative Free Radical Scavenging Activity(%) on ABTS ([1]; 46 µM): 98.5%
CCOC(=O)C[n+]1cccc(C(=O)NCCOC(=O)c2ccccc2)c1.[Br-] [Compound 7, 1-(2-ethoxy-2-oxoethyl) -3-(2-(benzoyloxy)ethylaminocarbonyl) pyridinium bromide] |  |  |  |  |  |  |  | %Inhibition (Day 7) (Maillard reaction; 10mM): 51%; % Breakage (AGE-BSA; 20 mM test compound): 36%
CCOC(=O)NNC(=O)c1ccc[n+](CC(=O)c2cccs2)c1 [Compound 54, 1-(2-thien-2'-yl-2-oxoethyl)-3-(ethoxycarbonyl hydrazinocarbonyl) pyridinium bromide] | 33.43 | 5.22 | 15.45 | 46.82 | 77.07 |  |  | %Inhibition (Day 7) (Maillard reaction; 2.5mM): 46.3%
O=C(C[n+]1cccc(C(=O)NNC(=O)c2ccc[n+](CC(=O)NC3CC3)c2)c1)NC1CC1 [Compound 39, N, N'-bis-[3-carbonyl-1-(2-cyclopropylamino-2-oxoethyl)pyridinium] hydrazine dichloride] |  | 43.0 | 62.8 | 95.6 | 98 | superior |  | % Breakage (AGE-BSA; 5 mM test compound): 22.8%; % Improvement in collagen solubility with respect to untreated control subject. (Rat Tail Tendon Collagen; 6.0mg/kg): 28.00%
O=C(NNC(=O)c1ccc[n+](CC(=O)c2cc([N+](=O)[O-])cs2)c1)c1ccc[n+](CC(=O)c2cc([N+](=O)[O-])cs2)c1 [Compound 56, N, N'-bis [3-carbonyl-1-(2-(4-nitrothien-2-yl)-2-oxoethyl)pyridinium] hydrazine dichloride] | 75.92 | 43.0 |  |  | 97.7 |  | 100 | Relative Free Radical Scavenging Activity(%) on ABTS ([1]; 23 µM): 57.2%; Relative Free Radical Scavenging Activity(%) on ABTS ([1]; 46 µM): 71.6%
CCOC(=O)C[n+]1cccc(C(=O)NNc2ccccn2)c1.[Br-] [Compound 4, 1-(2-ethoxy-2-oxoethyl) -3-(2-(2-pyridyl) hydrazinocarbonyl) pyridinium bromide] | 30 | 58.2 | 64.3 | 69.3 | 98.6 | superior | 100 | 
CCCCOC(=O)c1ccc[n+](CC(=O)Nc2ccccc2)c1.[Cl-] [Compound 93, 1-(2- Phenylamino-2-oxoethyl) -3-(n-butyloxycarbonyl) pyridinium chloride] | 57 | 8.5 | 8.6 | 9.6 | 11.4 |  | 25.0 | 
O=C(NNS(=O)(=O)C(F)(F)F)c1ccc[n+](CC(=O)c2cccs2)c1 [Compound 68, 1-(2-thien-2'-yl-2-oxoethyl)-3-(trifluoromethanesulfonyl hydrazinocarbonyl) - pyridinium bromide] | 92.64 | 38.47 | 43.54 | 89.32 | 95.07 | superior |  | potency (AGE breaking activity compared to PTB) (AGE-BSA; [2]): significantly much higher
CS(=O)(=O)NNC(=O)c1ccc[n+](CC(=O)c2cccs2)c1.[Cl-] [Compound 45, 1-(2-thien-2'-yl-2-oxoethyl)-3-(methanesulfonyl hydrazinocarbonyl) pyridinium chloride] | 17.53 | 53.9 | 56.2 | 78.7 | 99.8 |  | 100 | 
O=C(NNC(=O)c1ccc[n+](CC(=O)c2cccs2)c1)c1ccc[n+](CC(=O)c2cccs2)c1.[Br-].[Br-] [Compound 6, N, N'-bis [3-carbonyl-1-(2-thien-2'-yl-2-oxoethyl)pyridinium] hydrazine dibromide] |  |  |  |  |  | superior |  | % Breakage (AGE-BSA; 5 mM test compound): 53%; % Improvement in collagen solubility with respect to untreated control subject. (Rat Tail Tendon Collagen; 7.5mg/kg): 56.70%
CS(=O)(=O)NNC(=O)c1ccc[n+](CC(=O)c2cccs2)c1.[Br-] [Compound 5, 1-(2-thien-2'-yl-2-oxoethyl) -3-(methanesulfonylhydrazinocarbonyl) pyridinium bromide] | 16 | 47.2 | 65.6 | 83.7 | 100 |  |  | %Inhibition (Day 7) (Maillard reaction; 10mM): 70%; % Breakage (AGE-BSA; 50 mM test compound): 68%; % Improvement in collagen solubility with respect to untreated control subject. (Rat Tail Tendon Collagen; 10.0mg/kg): 88.80%
CC(C)S(=O)(=O)NNC(=O)c1ccc[n+](CC(=O)c2cccs2)c1 [Compound 50, 1-(2-thien-2'-yl-2-oxoethyl)-3-(isopropylsulfonyl hydrazinocarbonyl) pyridinium bromide] | 31.45 | 3.30 | 23.06 | 54.95 | 89.31 | superior |  | 
COCCOC(=O)c1ccc[n+](CC(=O)c2ccc(Cl)cc2Cl)c1 [Compound 22, 1-(2-(2', 4'-dichlorophenyl)-2-oxoethyl)-3-(2(methoxy)ethyloxycarbonyl) pyridinium bromide] | 13 | 27.9 | 50.9 | 69.3 | 79.7 |  | 100 | % Breakage (AGE-BSA; 25 mM test compound): 41%
